The results in this text go back to PubChem BioAssay AID463229 (Broad Institute, 2010).

The structures appear in SMILES notation.

In this test the test system is INS-1E rat beta cells, no cytokines, CellTiter-Glo ATP, 48 h. Description: ATP level change in INS-1E without cytokines, dose response, counter-screen for beta-cell apoptosis protection project, INS-1E rat cells, ATP luminescence, cherry pick (AID 463229). On the technique in general: The purpose of a counterscreen is to sort out artefacts and off-target activity.
In the case of `O=C(Cn1c(-c2ccccc2)c[n+]2ccsc12)c1ccc([N+](=O)[O-])cc1`, the half-maximal activity concentration (AC50) is 6.04 µM.
`CCCOc1ccc(Cc2c(Cl)nc(SC)nc2NC)cc1`: the concentration at half-maximal activity (AC50) is 6.05 µM.
The value for `O=C(N/N=C/c1ccc(O)cc1O)/C(=C/c1ccccc1)CCO` was 6.54 µM; that for `COc1ccc(NC(=O)/C(Cl)=C(/Cl)S(=O)Cc2ccc(C)cc2)cn1` (stereo not drawn) was 1.3 µM; that for `O=S(=O)(c1cccs1)N1CCN(CC(O)COc2cc(Cl)ccc2Cl)CC1` (stereo not drawn) was 13.3 µM.
`C=C[C@H](CC(C)C)N(Cc1ccccc1)S(=O)(=O)N(Cc1ccc(OC)cc1)[C@H](C=C)CC(C)C`: the AC50 is 5.73 µM.
`Cc1ccc2nc(/C(C#N)=C\c3ccc([N+](=O)[O-])o3)[nH]c2c1`: the AC50 is 2.96 µM.
Then `Cc1cc(N)c2cc(NC(=O)/C=C/c3ccccc3Cl)ccc2n1`, with 14.2 µM.
Then `COc1ccc(C(=O)/C(C#N)=N/Nc2ccc([N+](=O)[O-])cc2)cc1`, with 2.15 µM; and `CCOC(=O)C1=C(c2ccc(OC)cc2)C(=O)c2ccccc2C1=O`, with 3.83 µM; and `COc1ccc(NC(=O)c2c(Nc3ccccc3)sc(C(=O)c3ccc(F)cc3)c2N)cc1`, with 2.91 µM.
Then `CN1CCN(c2ccc(CNS(=O)(=O)Cc3cccc(C(F)(F)F)c3)cc2)CC1`, with 8.93 µM; and `Cc1cc2c(NCCc3ccccc3)ncnc2s1`, with 2.95 µM.
With `C#CCOCCOCCOCCNc1nc(N2CCN(C(=O)CCCCCCCCCCNC(=O)[C@H]([C@@H](C)CC)n3cc(CCCCN=C(N)N)nn3)CC2)nc(N2CCN(C(=O)CCCCCCCCCCNC(=O)[C@H](CCCCN)n3cc(C)nn3)CC2)n1`, the AC50 is 6.28 µM.
The value for `Cc1cc(C(=O)CSc2nc3ccccc3c(=O)n2C)c(C)n1Cc1ccc2c(c1)OCO2` was 2.07 µM.
The value for `CCN(CC)CCOC(=O)c1ccc(N/C=C(/C#N)c2nc(-c3ccc4c(c3)OCO4)cs2)cc1` was 14.2 µM; that for `COc1cc(N/N=C/c2ccccc2O)ncn1` was 16.2 µM.
Regarding `CCOC(=O)/C(=C\c1ccccc1)C(=O)c1cc(C(C)=O)c(Nc2ccccc2)s1`, the AC50 is 6.53 µM.
`C/C(=N\N1C(=O)c2ccccc2NC1c1ccco1)c1ccccc1O` (stereo not drawn): the AC50 is 12.5 µM.
The value for `COc1ccccc1CNc1ncnc2sccc12` was 11.9 µM.
The value for `CCC(=O)N1c2ccc(S(=O)(=O)N3CCN(c4ccc([N+](=O)[O-])cc4)CC3)cc2CC1C` (stereo not drawn) was 6.37 µM.
Consider `Cc1nc(Nc2ccc(Cl)c(Cl)c2)sc1C(=O)Nc1ccccc1`, for which the AC50 is 9.24 µM.
The value for `Cc1oc2c(c1C(=O)c1ccccc1)C(=O)C(=O)c1ccccc1-2` was 3.52 µM; that for `CCN(CC)S(=O)(=O)c1cccc(NC(=O)Nc2cccc(C(F)(F)F)c2)c1` was 7.13 µM.
For the compound `CCCCC(=O)NC(c1ccc(Cl)cc1)c1ccc2cccnc2c1O` (stereo not drawn), the AC50 was 1.35 µM.
Then `COc1cccc(CN2CCC(N(CCc3ccccc3)Cc3ccccc3)CC2)c1OC`, with 14.7 µM.
Then `CC1=NOC(=O)/C1=C/c1ccc(-c2ccc(Cl)cc2)o1`, with 7 µM.
The value for `Oc1c(CN2CCN(c3ccccn3)CC2)cc(Cl)c2cccnc12` was 5.4 µM; that for `CCOc1cc(/C=C2\CCC/C(=C\c3cc(Cl)c(O)c(OCC)c3)C2=O)cc(Cl)c1O` was 7.28 µM.
With `COc1ccc(C(=O)N(C)c2ccccc2C(=O)NCCc2ccccc2)cc1`, the half-maximal activity concentration (AC50) was 7.85 µM.
With `CCCCCCCCCCn1c2c(c(=N)c3c1CCC3)CCC2`, the AC50 is less than 0.195 µM.
For the compound `CC(=O)NN1C(=O)c2ccc3c4c(ccc(c24)C1=O)C(=O)N(NC(C)=O)C3=O`, the AC50 is 3.65 µM.
The value for `Cc1ccc2[nH]c(=O)c(C3C(C#N)=C(N)Oc4c3ccc3cccnc43)cc2c1` (stereo not drawn) was 4.74 µM.
Then `C=CCc1cccc(/C=N/NC(=O)c2ccc3nc[nH]c3c2)c1O`, with 6.52 µM; and `Oc1ccc(COCc2ccccc2)c2cccnc12`, with 4.28 µM; and `CC(NC(=S)NC1CCCCC1)c1ccc(C(C)(C)C)cc1` (stereo not drawn), with 11.2 µM.
The value for `Cc1ccc(C)c(S(=O)(=O)Nc2cc(SCC(=O)O)c(O)c3ccccc23)c1` was 7.19 µM.
Take `CCCCCCCCCCn1ccc(=N)cc1`: the AC50 was 0.543 µM.
The value for `CCCCCCCCCCCCCCCC[n+]1cccc(C(=O)N(CC)CC)c1` was 8.01 µM; that for `COc1ccc(Cl)c(Cn2c(NCc3ccco3)nc3c2c(=O)n(C)c(=O)n3C)c1` was 13.1 µM.
Then `COc1ccc(Cc2nc(-c3ccc(NC(=O)c4cccnc4)cc3)no2)cc1`, with 0.286 µM; and `Cc1ccc(C(=O)NC(=S)/C=C2\N(C)c3ccccc3C2(C)C)cc1`, with 4.23 µM.
Then `COc1ccc(-c2sc3ccccc3c2-c2ccc(OCCN3CCCCC3)cc2)cc1`, with 14.8 µM.
Turning to `CCN1CCN(Cc2ccc(NC(=O)c3ccc(C)c(NC(=O)c4c[nH]c5cc(C(F)(F)F)ccc5c4=O)c3)cc2C(F)(F)F)CC1`, the AC50 was 7.07 µM.
Then `C[N+]1=C(/C=C/Nc2ccccc2Cl)C(C)(C)c2ccccc21`, with 12.2 µM; and `CCCCCCc1cc2cc(-c3nnc(-c4ccccc4O)o3)c(=O)oc2cc1O`, with 7.66 µM.
The value for `Cc1sc2ncnc(N/N=C/c3ccccc3O)c2c1C` was 3.03 µM.
Then `CS(=O)(=O)c1ncc(Cl)c(C(=O)Nc2ccc(OC(F)F)cc2)n1`, with 11.6 µM.
As for `Cc1cccc(-n2c(C)cc(/C=N/n3cnnc3)c2C)c1`, the AC50 was 14.5 µM.
The value for `Cc1cc(Br)cc(/C=N/NC(=O)c2ccc3c(c2)OCO3)c1O` was 7.43 µM; that for `CN1/C(=C\C(=O)C[n+]2ccc(C(=O)c3ccccc3)cc2)C(C)(C)c2ccccc21` was 1.26 µM.
The value for `CC1(C)Cc2c(c(N3CCOCC3)nc3sc4c(NN)ncnc4c23)CS1` was 6.38 µM; that for `COc1ccc(-[n+]2c(-c3ccccc3)cc(-c3ccccc3)cc2-c2ccccc2)cc1` was 1.71 µM; that for `CC1CCN(Cc2c(C(=O)N/N=C/c3ccccc3O)nnn2-c2nonc2N)CC1` was 5.67 µM.
Then `CCC(=O)NC(c1cccs1)c1ccc2cccnc2c1O` (stereo not drawn), with 3.37 µM; and `CN(CC1CCCO1)S(=O)(=O)c1ccc(C(=O)Nc2nc(-c3ccccn3)cs2)cc1` (stereo not drawn), with 10.4 µM.
Take `COc1ccc2nc(C)cc(N/N=C/c3ccccc3)c2c1`: the AC50 was 13.8 µM.
Then `Cc1cc(C)nc(N/N=C2/CCCC/C2=C\c2ccccc2)n1`, with 3.72 µM; and `CCC(=O)NC(c1ccc(OC)cc1)c1cc(Cl)c2cccnc2c1O` (stereo not drawn), with 6.63 µM.
The value for `CCCCCCCCCn1ccc(=N)cc1` was 0.553 µM; that for `Cc1occc1C(=O)N/N=C/c1ccc2c(c1)OCO2` was 5.48 µM.
The value for `COc1cccc(CN(C)C(=O)c2cc(COc3ccc4ncccc4c3)on2)c1` was 6.86 µM.
Consider `O=C(CNc1ccccc1)N/N=C/c1c(O)ccc2ccccc12`, for which the AC50 was 15.8 µM.
Then `Cn1cc(CNCc2ccc(OC(F)(F)F)cc2)c(-c2ccc3c(c2)OCCO3)n1`, with 3.64 µM.
Then `COc1ccc(S(=O)(=O)Nc2cc(SCC(=O)O)c(O)c3ccccc23)cc1`, with 8.19 µM; and `Cc1cc(N2CCN(S(=O)(=O)c3ccc(Cl)cc3)CC2)c2ccccc2n1`, with 7.4 µM.
In the case of `CCOC(=O)c1sc(NC(=O)Nc2cccc(Cl)c2)cc1C`, the AC50 was 7.53 µM.
The value for `Cc1ccc(S(=O)(=O)c2ccc([N+](=O)[O-])cn2)cc1` was 13.5 µM; that for `N#C/C(=N\Nc1cccc([N+](=O)[O-])c1)C(=O)c1ccc(Br)cc1` was 7.29 µM.
The value for `Cc1sc2ncnc(NCC(O)c3ccccc3)c2c1C` (stereo not drawn) was 10.5 µM; that for `COCCCNC(=O)Cn1nnc(-c2ccc(NC(=O)c3cccnc3)cc2)n1` was 5.3 µM; that for `COc1cc(NC(=O)c2[nH]cnc2C(N)=O)cc(C(=O)Nc2cccc(C(F)(F)F)c2)c1` was 5.21 µM.
The value for `CCC1CCCCN1C(=O)c1cc(COc2ccc(-n3cncn3)cc2)on1` (stereo not drawn) was 16.5 µM; that for `Nc1c(C(=O)Nc2ccc(S(=O)(=O)N3CCCC3)cc2)sc2nc3ccc(OC(F)(F)F)cc3cc12` was 5.29 µM; that for `CCC(C)(C)c1ccc(OCCCC[n+]2ccc(C)cc2)c(C(C)(C)CC)c1` was 1.91 µM.
Consider `O=C(O)CCCC(=O)Nc1ccc(C(=O)NCc2cccnc2)cc1`, for which the AC50 is 4.54 µM.
Then `COc1cc2sc(-c3ccccc3OC)c(-c3ccc(OCCN4CCCCC4)cc3)c2cc1OC`, with 7.57 µM; and `CCCCCn1c(=O)c(C(=O)NC(C)c2ccccc2)c(O)c2ccccc21` (stereo not drawn), with 4.19 µM.
Then `CC1CCC(C(C)C)C(OC(=O)Cn2c(-c3ccc(Cl)cc3)[n+](C)c3ccccc32)C1` (stereo not drawn), with 3.83 µM.
The value for `C/C(=N\NC(=O)c1cc2ccccc2cc1O)c1ccccn1` was 2.66 µM; that for `CCOC(=O)c1ccc(NC(=O)c2nc(S(=O)(=O)Cc3ccccc3)ncc2Cl)cc1` was 9.2 µM; that for `O=[N+]([O-])c1ccc(-c2nc(C(Cl)Cl)c3ccccc3n2)cc1` was 1.66 µM.
As for `O=C(N/N=C/c1cc([N+](=O)[O-])ccc1O)c1cccc2cc[nH]c12`, the AC50 was 6.89 µM.
The value for `COc1ccc2nc(Nc3nc(CSc4nc5ccccc5[nH]4)cc(=O)[nH]3)nc(C)c2c1` was 7.05 µM.
The value for `O=C(/C=C/c1cccc([N+](=O)[O-])c1)c1ccc([N+](=O)[O-])o1` was 3.95 µM; that for `CC(C)[C@H]1C(=O)O[C@H](C(C)C)C(=O)N(C)[C@@H](C(C)C)C(=O)O[C@H](C(C)C)C(=O)N(C)[C@@H](C(C)C)C(=O)O[C@H](C(C)C)C(=O)N1C` was 3.8 µM.
The value for `CC1(C)CC(N2CCN(c3ccccc3)CC2)=CC(=[N+]2CCCC2)C1` was 1.79 µM; that for `O=C(COc1ccc2ccccc2c1)N1CCN(Cc2c[nH]c3ccccc23)CC1` was 2.8 µM.
`CCOc1ccc(CN2CCN(Cc3c[nH]c4ccccc34)CC2)cc1`: the AC50 was 7.75 µM.
Then `O=[N+]([O-])c1ccc(/C=N/n2c(CO)nc3ccccc32)s1`, with 10.8 µM; and `Cc1ccc(NS(=O)(=O)c2ccc(Cl)c(NC(=S)NC(=O)C3CCCCC3)c2)cc1Cl`, with 14 µM.
Then `CCN1/C(=C\C=C\C2=[N+](CC)c3ccccc3C2(C)C)C(C)(C)c2ccccc21`, with less than 0.195 µM.
Then `Cc1cccc(N2C(=S)N=C(Nc3c(C)cccc3C)C23CCOC(C)(C)C3)c1` (stereo not drawn), with 3.79 µM.

In general, AC50 refers to the midpoint of the concentration-response curve, whichever way the signal moves.
